Structures are written as SMILES.

Assay [1] concerns the target Tyrosine-protein kinase Srms (Homo sapiens) (UniProt Q9H3Y6). The assay is described as follows: Selectivity interaction (KinomeScan (DiscoverX)) EUB0000595a SRMS. The conditions noted are these: at 10 µM.
The target in assay [2] is Bone morphogenetic protein receptor type-1B (Homo sapiens, UniProt O00238). Kind of assay: Selectivity interaction (KinomeScan (DiscoverX)) EUB0000666a BMPR1B. The conditions noted are these: at 10 µM.
The target of assay [3] is T1, Serine/threonine-protein kinase Nek2 (Homo sapiens) (UniProt P51955).
T1 sequence (whole entry): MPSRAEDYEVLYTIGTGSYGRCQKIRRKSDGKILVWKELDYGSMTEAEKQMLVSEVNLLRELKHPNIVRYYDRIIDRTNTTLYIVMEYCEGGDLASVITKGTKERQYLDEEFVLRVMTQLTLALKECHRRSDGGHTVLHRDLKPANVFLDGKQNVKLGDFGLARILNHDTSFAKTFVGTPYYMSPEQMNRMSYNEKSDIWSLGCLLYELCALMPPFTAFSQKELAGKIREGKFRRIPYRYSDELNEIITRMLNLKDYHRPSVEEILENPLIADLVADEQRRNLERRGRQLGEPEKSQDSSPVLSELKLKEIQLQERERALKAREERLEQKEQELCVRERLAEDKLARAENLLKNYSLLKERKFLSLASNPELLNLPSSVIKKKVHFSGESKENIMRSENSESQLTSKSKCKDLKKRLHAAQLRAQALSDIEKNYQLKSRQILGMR
The settings on record: at 10 µM.

For assay [4], the target named is Protein kinase C delta type (Homo sapiens) (UniProt Q05655). The conditions noted are these: at 10 µM.
Assay [5] concerns the target Vascular endothelial growth factor receptor 1 (Homo sapiens) (UniProt P17948). The assay is described as follows: Selectivity interaction (Kinase panel (DSF assay)) EUB0001559a FLT1. In general terms: Differential scanning fluorimetry follows unfolding on heating by fluorescence.
The target in assay [6] is Receptor-interacting serine/threonine-protein kinase 2 (Homo sapiens, UniProt O43353). Kind of assay: Selectivity interaction (KinomeScan (DiscoverX)) EUB0000045b RIPK2.
Assay [7] concerns the target T2, Serine/threonine-protein kinase NLK (Homo sapiens) (UniProt Q9UBE8).
T2 sequence (whole entry): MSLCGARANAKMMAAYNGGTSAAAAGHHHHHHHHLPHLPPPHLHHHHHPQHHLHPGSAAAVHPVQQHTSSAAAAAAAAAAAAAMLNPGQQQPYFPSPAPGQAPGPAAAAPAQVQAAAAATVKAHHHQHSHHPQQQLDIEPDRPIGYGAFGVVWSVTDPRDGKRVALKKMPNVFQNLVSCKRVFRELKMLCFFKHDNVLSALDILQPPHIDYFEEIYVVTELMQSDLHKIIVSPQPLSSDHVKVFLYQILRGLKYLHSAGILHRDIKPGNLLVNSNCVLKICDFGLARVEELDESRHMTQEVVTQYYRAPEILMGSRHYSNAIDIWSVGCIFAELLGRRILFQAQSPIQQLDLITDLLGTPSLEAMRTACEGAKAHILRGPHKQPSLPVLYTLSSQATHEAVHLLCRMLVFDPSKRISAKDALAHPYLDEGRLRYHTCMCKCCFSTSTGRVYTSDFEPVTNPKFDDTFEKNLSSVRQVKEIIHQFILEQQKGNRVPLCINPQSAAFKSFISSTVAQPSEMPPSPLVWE
Kind of assay: Selectivity interaction (KinomeScan (DiscoverX)) EUB0000045b NLK.

For assay [8], the target named is CDK7/Cyclin H/MNAT1 (Homo sapiens) (UniProt P51946+P50613+P51948). The assay is described as follows: Selectivity interaction (ProQinase) EUB0000171b CDK7. The assay is classed as protein-complex assay.
The target in assay [9] is Serine/threonine-protein kinase SIK2 (Homo sapiens) (UniProt Q9H0K1). The assay is described as follows: Selectivity interaction (KinomeScan (DiscoverX)) EUB0000655a SIK2. The conditions noted are these: at 10 µM.
Assay [10] concerns the target T3, Bone morphogenetic protein receptor type-2 (Homo sapiens) (UniProt Q13873).
T3 sequence (whole entry): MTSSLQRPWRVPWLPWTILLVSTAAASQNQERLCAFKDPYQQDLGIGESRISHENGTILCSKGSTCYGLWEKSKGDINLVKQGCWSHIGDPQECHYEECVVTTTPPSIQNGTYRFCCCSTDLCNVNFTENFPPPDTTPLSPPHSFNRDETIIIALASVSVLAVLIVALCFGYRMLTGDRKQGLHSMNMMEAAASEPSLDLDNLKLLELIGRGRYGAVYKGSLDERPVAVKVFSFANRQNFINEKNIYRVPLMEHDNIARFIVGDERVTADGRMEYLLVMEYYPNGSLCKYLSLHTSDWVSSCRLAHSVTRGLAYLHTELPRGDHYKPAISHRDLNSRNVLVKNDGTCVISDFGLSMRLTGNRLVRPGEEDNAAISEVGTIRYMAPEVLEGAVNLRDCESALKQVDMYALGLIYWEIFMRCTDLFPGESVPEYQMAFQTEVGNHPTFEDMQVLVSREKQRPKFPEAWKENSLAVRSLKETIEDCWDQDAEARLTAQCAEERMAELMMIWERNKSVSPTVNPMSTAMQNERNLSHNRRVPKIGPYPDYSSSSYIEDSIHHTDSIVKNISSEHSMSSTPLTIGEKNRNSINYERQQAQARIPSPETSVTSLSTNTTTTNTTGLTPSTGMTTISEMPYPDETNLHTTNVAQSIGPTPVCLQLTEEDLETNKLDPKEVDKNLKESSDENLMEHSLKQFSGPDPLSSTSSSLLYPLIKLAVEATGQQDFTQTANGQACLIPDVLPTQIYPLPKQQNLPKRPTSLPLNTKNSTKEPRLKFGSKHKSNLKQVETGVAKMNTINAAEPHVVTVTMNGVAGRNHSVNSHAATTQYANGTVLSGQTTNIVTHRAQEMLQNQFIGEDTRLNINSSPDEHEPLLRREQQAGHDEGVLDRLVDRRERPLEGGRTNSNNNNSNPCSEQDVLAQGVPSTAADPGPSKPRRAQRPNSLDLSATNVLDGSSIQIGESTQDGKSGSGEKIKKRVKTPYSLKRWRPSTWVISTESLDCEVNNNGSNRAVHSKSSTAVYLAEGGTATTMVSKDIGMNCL
The assay is described as follows: Selectivity interaction (KinomeScan (DiscoverX)) EUB0000655a BMPR2. The conditions noted are these: at 10 µM.

Sequence of Receptor-interacting serine/threonine-protein kinase 2 (O43353 whole entry): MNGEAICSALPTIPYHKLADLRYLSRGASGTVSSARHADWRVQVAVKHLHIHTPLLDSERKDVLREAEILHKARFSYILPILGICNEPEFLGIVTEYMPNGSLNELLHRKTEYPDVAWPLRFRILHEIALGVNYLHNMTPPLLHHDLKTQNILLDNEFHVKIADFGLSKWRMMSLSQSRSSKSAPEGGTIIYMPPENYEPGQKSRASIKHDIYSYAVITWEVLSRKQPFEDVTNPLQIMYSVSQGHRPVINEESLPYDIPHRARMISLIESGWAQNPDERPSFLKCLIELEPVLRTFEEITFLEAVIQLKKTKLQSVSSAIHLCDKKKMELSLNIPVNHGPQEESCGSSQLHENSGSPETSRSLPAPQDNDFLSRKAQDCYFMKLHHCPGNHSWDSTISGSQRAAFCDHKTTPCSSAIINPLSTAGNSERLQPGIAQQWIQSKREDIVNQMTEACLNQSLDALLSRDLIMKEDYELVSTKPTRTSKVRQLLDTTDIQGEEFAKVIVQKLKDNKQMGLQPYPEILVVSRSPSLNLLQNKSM
Sequence of Bone morphogenetic protein receptor type-1B (O00238 whole entry): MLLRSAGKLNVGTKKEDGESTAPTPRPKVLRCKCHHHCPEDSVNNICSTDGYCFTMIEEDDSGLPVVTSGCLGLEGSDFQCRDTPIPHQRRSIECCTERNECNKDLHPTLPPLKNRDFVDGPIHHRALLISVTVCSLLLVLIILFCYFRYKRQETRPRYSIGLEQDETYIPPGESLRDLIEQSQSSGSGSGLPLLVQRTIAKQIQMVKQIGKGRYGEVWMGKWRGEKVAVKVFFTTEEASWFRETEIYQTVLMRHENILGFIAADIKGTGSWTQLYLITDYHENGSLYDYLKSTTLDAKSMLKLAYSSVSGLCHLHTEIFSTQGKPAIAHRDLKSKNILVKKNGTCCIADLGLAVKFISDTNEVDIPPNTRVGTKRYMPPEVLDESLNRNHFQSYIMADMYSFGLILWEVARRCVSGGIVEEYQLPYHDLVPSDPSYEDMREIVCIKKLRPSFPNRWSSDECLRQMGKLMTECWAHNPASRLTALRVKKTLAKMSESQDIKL
Sequence of Protein kinase C delta type (Homo sapiens) (Q05655 whole entry, looked up): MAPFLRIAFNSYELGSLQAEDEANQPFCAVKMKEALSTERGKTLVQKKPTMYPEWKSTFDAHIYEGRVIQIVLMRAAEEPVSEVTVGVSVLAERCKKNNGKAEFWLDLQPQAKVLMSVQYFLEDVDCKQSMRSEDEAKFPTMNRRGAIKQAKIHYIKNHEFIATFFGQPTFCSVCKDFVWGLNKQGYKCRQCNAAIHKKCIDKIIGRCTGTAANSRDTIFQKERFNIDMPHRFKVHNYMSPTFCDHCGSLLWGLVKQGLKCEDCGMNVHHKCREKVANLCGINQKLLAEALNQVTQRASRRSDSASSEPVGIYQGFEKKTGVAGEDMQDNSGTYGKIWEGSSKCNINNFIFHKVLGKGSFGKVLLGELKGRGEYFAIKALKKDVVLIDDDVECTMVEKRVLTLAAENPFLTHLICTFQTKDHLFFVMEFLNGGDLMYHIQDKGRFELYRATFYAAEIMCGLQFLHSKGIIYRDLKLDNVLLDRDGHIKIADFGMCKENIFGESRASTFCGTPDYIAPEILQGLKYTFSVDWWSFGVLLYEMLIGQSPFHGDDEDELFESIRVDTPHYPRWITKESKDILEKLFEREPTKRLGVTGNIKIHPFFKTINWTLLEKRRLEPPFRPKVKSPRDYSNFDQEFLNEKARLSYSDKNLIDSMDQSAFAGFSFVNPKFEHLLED
Sequence of Serine/threonine-protein kinase SIK2 (Homo sapiens) (Q9H0K1 whole entry, looked up): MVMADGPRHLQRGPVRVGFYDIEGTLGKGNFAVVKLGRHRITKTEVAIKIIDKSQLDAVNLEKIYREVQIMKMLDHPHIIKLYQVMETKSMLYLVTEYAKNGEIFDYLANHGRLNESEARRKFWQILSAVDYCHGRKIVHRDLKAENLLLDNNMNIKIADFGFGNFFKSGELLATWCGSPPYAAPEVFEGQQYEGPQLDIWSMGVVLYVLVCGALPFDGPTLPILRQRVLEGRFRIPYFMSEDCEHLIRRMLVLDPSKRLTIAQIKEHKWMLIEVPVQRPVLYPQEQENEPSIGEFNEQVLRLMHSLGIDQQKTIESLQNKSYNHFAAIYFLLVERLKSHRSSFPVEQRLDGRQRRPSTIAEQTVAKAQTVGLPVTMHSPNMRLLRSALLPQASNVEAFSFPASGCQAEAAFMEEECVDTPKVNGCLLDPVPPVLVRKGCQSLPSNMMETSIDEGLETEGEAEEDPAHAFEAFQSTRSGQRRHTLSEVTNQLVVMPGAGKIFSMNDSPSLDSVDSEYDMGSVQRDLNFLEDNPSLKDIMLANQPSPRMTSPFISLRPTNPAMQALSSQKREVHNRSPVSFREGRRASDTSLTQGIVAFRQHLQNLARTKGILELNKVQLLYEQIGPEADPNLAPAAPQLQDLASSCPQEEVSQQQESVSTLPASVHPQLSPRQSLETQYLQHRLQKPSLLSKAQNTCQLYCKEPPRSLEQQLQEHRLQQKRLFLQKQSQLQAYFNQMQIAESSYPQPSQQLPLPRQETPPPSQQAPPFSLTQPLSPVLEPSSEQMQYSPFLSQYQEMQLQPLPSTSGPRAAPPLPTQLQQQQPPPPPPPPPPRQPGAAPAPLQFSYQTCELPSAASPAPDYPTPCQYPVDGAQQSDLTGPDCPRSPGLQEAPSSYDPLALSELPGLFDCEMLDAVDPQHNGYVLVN
Sequence of Tyrosine-protein kinase Srms (Homo sapiens) (Q9H3Y6 whole entry): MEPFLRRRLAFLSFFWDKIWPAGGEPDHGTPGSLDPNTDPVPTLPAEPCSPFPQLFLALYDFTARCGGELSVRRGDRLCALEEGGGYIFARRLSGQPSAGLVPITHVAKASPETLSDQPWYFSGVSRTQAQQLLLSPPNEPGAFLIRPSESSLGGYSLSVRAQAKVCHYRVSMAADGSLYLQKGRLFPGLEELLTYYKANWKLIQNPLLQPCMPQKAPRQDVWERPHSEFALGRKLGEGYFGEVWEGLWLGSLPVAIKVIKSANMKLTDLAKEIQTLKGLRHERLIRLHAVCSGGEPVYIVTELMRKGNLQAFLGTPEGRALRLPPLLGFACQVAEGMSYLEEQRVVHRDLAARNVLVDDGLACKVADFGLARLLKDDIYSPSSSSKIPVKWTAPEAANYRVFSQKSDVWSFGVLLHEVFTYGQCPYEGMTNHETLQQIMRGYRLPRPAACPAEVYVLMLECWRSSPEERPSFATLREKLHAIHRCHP
Sequence of Vascular endothelial growth factor receptor 1 (Homo sapiens) (P17948 whole entry): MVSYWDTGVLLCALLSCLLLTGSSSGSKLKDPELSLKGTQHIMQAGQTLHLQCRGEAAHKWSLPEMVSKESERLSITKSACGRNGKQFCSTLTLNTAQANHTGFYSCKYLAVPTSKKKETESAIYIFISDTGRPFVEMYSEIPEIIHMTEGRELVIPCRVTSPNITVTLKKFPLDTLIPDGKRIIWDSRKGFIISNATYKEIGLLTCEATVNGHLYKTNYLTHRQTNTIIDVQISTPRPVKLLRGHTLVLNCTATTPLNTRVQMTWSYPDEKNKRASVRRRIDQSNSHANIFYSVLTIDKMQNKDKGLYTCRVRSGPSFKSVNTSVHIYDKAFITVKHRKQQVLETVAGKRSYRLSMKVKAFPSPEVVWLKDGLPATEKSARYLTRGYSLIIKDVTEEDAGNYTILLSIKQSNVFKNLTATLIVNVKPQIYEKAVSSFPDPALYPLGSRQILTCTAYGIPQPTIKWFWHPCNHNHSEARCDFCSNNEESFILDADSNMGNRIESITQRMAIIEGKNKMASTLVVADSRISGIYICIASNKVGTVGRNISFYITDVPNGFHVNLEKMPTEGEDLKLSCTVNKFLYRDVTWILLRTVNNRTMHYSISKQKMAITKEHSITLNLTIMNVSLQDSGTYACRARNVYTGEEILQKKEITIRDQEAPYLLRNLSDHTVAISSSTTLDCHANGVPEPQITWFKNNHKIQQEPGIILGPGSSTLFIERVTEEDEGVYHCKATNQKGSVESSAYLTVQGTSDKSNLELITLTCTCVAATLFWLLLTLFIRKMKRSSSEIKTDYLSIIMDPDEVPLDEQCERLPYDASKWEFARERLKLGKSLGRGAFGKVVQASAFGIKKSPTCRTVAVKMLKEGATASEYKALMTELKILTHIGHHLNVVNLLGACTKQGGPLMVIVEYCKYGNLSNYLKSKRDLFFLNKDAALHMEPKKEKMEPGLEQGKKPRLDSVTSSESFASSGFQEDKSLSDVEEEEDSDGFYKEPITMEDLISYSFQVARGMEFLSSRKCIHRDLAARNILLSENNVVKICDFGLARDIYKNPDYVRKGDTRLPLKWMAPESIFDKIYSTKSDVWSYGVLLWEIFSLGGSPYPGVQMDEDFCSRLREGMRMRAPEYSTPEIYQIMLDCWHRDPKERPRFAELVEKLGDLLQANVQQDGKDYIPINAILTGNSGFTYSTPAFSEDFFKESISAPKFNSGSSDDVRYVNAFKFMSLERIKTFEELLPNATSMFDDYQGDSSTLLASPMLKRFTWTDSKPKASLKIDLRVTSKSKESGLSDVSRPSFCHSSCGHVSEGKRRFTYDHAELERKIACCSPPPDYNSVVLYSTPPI

Take `COCC(=O)NC/C=C/c1ccc2ncnc(Nc3ccc(Oc4ccc(C)nc4)c(C)c3)c2c1` [CP-724714]: in assay [1], the % of control came out at 71%.
For `O=C(NOC[C@H](O)CO)c1ccc(F)c(F)c1Nc1ccc(I)cc1F`, the % of control in [2] stood at 100%.
In the case of `Cc1cc([C@@H](C)Nc2ccccc2C(=O)O)c2nc(N3CCOCC3)cc(=O)n2c1` [AZD-6482], the figures for the % of control in assay [3] and in assay [4] were 71% and 82%, respectively.
On to `CN(C(=O)c1cnn2cccnc12)c1cc2c(cc1N1CCOCC1)C(=O)N(C[C@@H](F)C(C)(C)O)C2`, for which the dTM in assay [5] is -0.1 K.
With `C=CC(=O)Nc1cc(-n2c(=O)ccc3cnc4ccc(-c5ccc(NS(C)(=O)=O)cc5)cc4c32)ccc1C`, the % of control in [6] (at 1 µM) was 100%; in assay [6] (at 10 µM), 92%; in assay [7] (at 1 µM), 100%; in assay [7] (at 10 µM) it was 100%.
Consider `C=CC(=O)Nc1cccc(C(=O)Nc2ccc(Nc3cc(-c4[nH]c(SC)nc4C)ccn3)cc2)c1`, for which the % of control in assay [8] (at 1 µM) was found to be 89%; in assay [8] (at 5 µM) it was 86%.
Regarding `CN(C)CCOc1ccc(-c2nc(-c3ccncc3)c(-c3ccc4c(c3)CC/C4=N\O)[nH]2)cc1`, the % of control in [9] came out at 91%; in [10], 47%.
